Data reported in patent US11987559B1, “1-(4-bromobenzylideneamino)-5-phenylimidazolidine-2,4-dione as an antimicrobial compound” (KING FAISAL UNIVERSITY, priority 2023, dated 2024).

Experiments:
Assay type in all cases: cell-based
[1] = test system: Chrysosporium keratinophilum; experiment: agar plate disc-diffusion, antifungal inhibition zone; settings: Sabouraud's dextrose agar, 72 hours
Procedure: (§1) The agar plate disc-diffusion method was applied. […] The discs were then placed onto the surface of agar plates (nutrient agar for bacteria and Sabouraud's dextrose agar for fungi) seeded with the test organism. Each plate contained 15 mL of the agar medium, previously seeded with 0.2 mL of the broth culture of each organism pregrown for 18 hours. The plates were incubated at 37° C. for 48 hours, and 72 hours for fungi. The inhibition zones were measured in millimeters (mm). Discs impregnated with DMSO were used as a control, and its inhibition zone was subtracted from the tested compound's actual inhibition zone.

Aspergillus flavus = experiment: as above; settings: Sabouraud's dextrose agar, 72 hours
Procedure: as §1

Escherichia coli = experiment: agar plate disc-diffusion, antibacterial inhibition zone; settings: nutrient agar, 37° C., 48 hours
Procedure: as §1

Pseudomonas aeruginosa = experiment: as above; settings: nutrient agar, 37° C., 48 hours
Procedure: as §1

Bacillus cereus = experiment: as above; settings: nutrient agar, 37° C., 48 hours
Procedure: as §1

Staphylococcus aureus = experiment: as above; settings: nutrient agar, 37° C., 48 hours
Procedure: as §1

different microbes = experiment: antimicrobial testing, overall statement; settings: result in words; bacteria and fungi of tables 1, 2
Procedure: The agar plate disc-diffusion method was applied. Sterilized filter papers (6 mm in diameter) were wetted with 10 μL of a solution of 1-(4-bromobenzylideneamino)-5-phenylimidazolidine-2,4-dione (4) to be tested, containing 10 mg/mL in DMSO, and the discs were allowed to air dry. The discs were then placed onto the surface of agar plates (nutrient agar for bacteria and Sabouraud's dextrose agar for fungi) seeded with the test organism. Each plate contained 15 mL of the agar medium, previously seeded with 0.2 mL of the broth culture of each organism pregrown for 18 hours. The plates were incubated at 37° C. for 48 hours, and 72 hours for fungi. The inhibition zones were measured in millimeters (mm). Discs impregnated with DMSO were used as a control, and its inhibition zone was subtracted from the tested compound's actual inhibition zone.

[2] = A = concentration of comp. = 10,000 μL
[3] = B = concentration of comp. = 30.000 μL
[4] = C = concentration of comp. = 50,000 μL

| Structure (SMILES) | inhibition zone [1, 2] [mm] | inhibition zone [1, 3] [mm] | inhibition zone [1, 4] [mm] | inhibition zone (Aspergillus flavus; [2]) [mm] | inhibition zone (Aspergillus flavus; [3]) [mm] | inhibition zone (Aspergillus flavus; [4]) [mm] | inhibition zone (Escherichia coli; [2]) [mm] | inhibition zone (Escherichia coli; [3]) [mm] | inhibition zone (Escherichia coli; [4]) [mm] | inhibition zone (Pseudomonas aeruginosa; [2]) [mm] | inhibition zone (Pseudomonas aeruginosa; [3]) [mm] | inhibition zone (Pseudomonas aeruginosa; [4]) [mm] | inhibition zone (Bacillus cereus; [2]) [mm] | inhibition zone (Bacillus cereus; [3]) [mm] | inhibition zone (Bacillus cereus; [4]) [mm] | inhibition zone (Staphylococcus aureus; [2]) [mm] | inhibition zone (Staphylococcus aureus; [3]) [mm] | inhibition zone (Staphylococcus aureus; [4]) [mm] | antimicrobials activities against different microbes (different microbes) |
| --- | --- | --- | --- | --- | --- | --- | --- | --- | --- | --- | --- | --- | --- | --- | --- | --- | --- | --- | --- |
| O=C(O)c1cn(C2CC2)c2cc(N3CCNCC3)c(F)cc2c1=O [Cip., reference compound] | 29 | 30 | 53 | 29 | 30 | 42 | 30 | 39 | 60 | 29 | 30 | 53 | 29 | 30 | 42 | 43 | 44 | 53 |  |
| O=C1NC(=O)N(/N=C/c2ccc(Br)cc2)C1c1ccccc1 (stereo not shown) [Compound 4, 1-(4-bromobenzylideneamino)-5-phenylimidazolidine-2,4-dione] | 26 | 29 | 45 | 19 | 24 | 35 | 24 | 30 | 48 | 23 | 27 | 34 | 27 | 29 | 28 | 15 | 23 | 26 | excellent |
